These results are taken from ChEMBL document CHEMBL4376803, “Recent Advances in the Exploration of Therapeutic Analogues of Gramicidin S, an Old but Still Potent Antimicrobial Peptide” (J Med Chem, 2019).

Series [1] has as its system Pseudomonas aeruginosa. Kind of series: Antibacterial activity against Pseudomonas aeruginosa NBRC 3080 after overnight incubation by microplate dilution method. The series is classed as functional.
Series [2] can be described thus: Hemolytic activity in sheep RBC incubated for 30 mins. Particulars: sheep red blood cells. It counts as ADME, cell-based, Ovis aries, Erythrocyte.
Another series relates to Bacillus subtilis. Kind of series: Antibacterial activity against Bacillus subtilis NBRC 3513 after overnight incubation by microplate dilution method. It counts as functional.
Series [3] concerns Escherichia coli. Kind of series: Antibacterial activity against Escherichia coli NBRC 12734 after overnight incubation by microplate dilution method. It counts as functional.
Another series relates to Priestia megaterium. Kind of series: Antibacterial activity against Bacillus megaterium ATCC 19213 after overnight incubation by microplate dilution method. The series is classed as functional.
Series [4] has as its system Staphylococcus aureus. As to the kind of experiment: Antibacterial activity against Staphylococcus aureus NBRC 12732 after overnight incubation by microplate dilution method. It counts as functional.
Series [5] in a line: Haemolytic activity in human erythrocytes incubated for 30 mins. It counts as ADME, cell-based, Erythrocyte.
For series [6], the system named is Staphylococcus aureus. As to the kind of experiment: Antibacterial activity against Staphylococcus aureus 209P incubated for 20 hrs by liquid microdilution method. It counts as functional. Background: In broth dilution the organism is exposed to a series of concentrations in liquid medium.
The test system of series [7] is Escherichia coli. Kind of series: Antibacterial activity against Escherichia coli K-12 strain W3110 incubated for 20 hrs by liquid microdilution method. The series is classed as functional. To be noted: K-12 substr. W3110, 20 h.
Series [8] deals with Staphylococcus aureus. Kind of series: Antibacterial activity against Staphylococcus aureus ATCC 29213 after overnight incubation. The series is classed as functional.
For series [9], the system named is Enterococcus faecalis. Kind of series: Antibacterial activity against Enterococcus faecalis ATCC 29212 after overnight incubation. It counts as functional.
The subject of series [10] is Escherichia coli. As to the kind of experiment: Antibacterial activity against Escherichia coli ATCC 25922 after overnight incubation. It counts as functional.
Series [11] relates to Staphylococcus aureus. As to the kind of experiment: Antibacterial activity against Staphylococcus aureus ATCC 29213 after 24 hrs. It counts as functional. Particulars: ATCC 29213, 24 h.
Series [12] deals with Escherichia coli. Kind of series: Antibacterial activity against Escherichia coli ATCC 25922 after 24 hrs. To be noted: ATCC 25922, 24 h. The series is classed as functional.
In series [13] the test system is Pseudomonas aeruginosa. As to the kind of experiment: Antibacterial activity against Pseudomonas aeruginosa ATCC 27853 incubated for 24 hrs. It counts as functional. To be noted: ATCC 27853, 24 h.
Series [14] concerns Enterococcus faecalis. As to the kind of experiment: Antibacterial activity against Enterococcus faecalis ATCC 29212 after 24 hrs. The series is classed as functional. To be noted: ATCC 29212, 24 h.
The subject of series [15] is Pseudomonas aeruginosa. As to the kind of experiment: Antibacterial activity against Pseudomonas aeruginosa ATCC 19582 after 24 hrs by broth dilution method. It counts as functional. To be noted: ATCC 19582, 24 h.
A short description of series [16]: Hemolytic activity against RBC (unknown origin) at 100 ul after 4 hrs. It counts as ADME, cell-based, Erythrocyte. To be noted: red blood cells (unknown origin).
In series [17] the test system is Staphylococcus aureus. Kind of series: Antibacterial activity against Staphylococcus aureus 7323. It counts as functional.
The test system of series [18] is Escherichia coli. Kind of series: Antibacterial activity against Escherichia coli ATCC 25922 after 24 hrs by broth dilution method. Particulars: ATCC 25922, 24 h. It counts as functional.
Series [19] deals with Enterococcus faecalis. As to the kind of experiment: Antibacterial activity against Enterococcus faecalis 1131 after 24 hrs by broth dilution method. The series is classed as functional. To be noted: Enterococcus faecalis, 1131, 24 h.
A further series deals with Erythrocyte. As to the kind of experiment: Haemolytic activity in human RBC after 4 hrs by visual method. It counts as ADME, cell-based.
Series [20] relates to Pseudomonas aeruginosa. As to the kind of experiment: Antibacterial activity against Pseudomonas aeruginosa H187 after overnight incubation by microtiter dilution method. The series is classed as functional.
The next series concerns Candida albicans. Kind of series: Antibacterial activity against Candida albicans after overnight incubation by microtiter dilution method. The series is classed as functional.
For a further series, the target named is Lipopolysaccharide (LPS). As to the kind of experiment: Displacement of Dansyl-polymyxin from Pseudomonas aeruginosa LPS by fluorescence method. To be noted: read-out: I50.
For series [21], the system named is Staphylococcus aureus. Kind of series: Antibacterial activity against Staphylococcus aureus K147 after overnight incubation by microtiter dilution method. The series is classed as functional.
Series [22] is described as follows: Therapeutic index, ratio of HD100 for hemolytic activity in human RBC to MIC against Staphylococcus aureus K147. The series is classed as toxicity. Particulars: human red blood cells, read-out: TI.
The nature of series [23]: Therapeutic index, ratio of HD100 for hemolytic activity in human RBC to MIC against Escherichia coli UB1005. The series is classed as toxicity. To be noted: human red blood cells, read-out: TI.
Series [24] concerns Escherichia coli. As to the kind of experiment: Antibacterial activity against Escherichia coli UB1005 after overnight incubation by microtiter dilution method. It counts as functional.
Series [25] can be described thus: Therapeutic index, ratio of HD100 for hemolytic activity in human RBC to MIC against Enterococcus faecalis ATCC 29212. Particulars: human red blood cells, read-out: TI. It counts as toxicity.
The test system of series [26] is Enterococcus faecalis. As to the kind of experiment: Antibacterial activity against Enterococcus faecalis ATCC 29212 after overnight incubation by microtiter dilution method. It counts as functional.
A short description of series [27]: Therapeutic index, ratio of HD100 for hemolytic activity in human RBC to MIC against Pseudomonas aeruginosa H187. It counts as toxicity. To be noted: human red blood cells, read-out: TI.

The MIC is the lowest concentration that inhibits growth of the organism. Higher therefore signals a less susceptible organism. By HC50 is commonly meant the concentration that lyses half of the red blood cells. Lower therefore signals more damage to red cells.

Converted amounts (≈) assume the structure as drawn. Square brackets hold non-standard residues; d marks the D form. Peptide text beside a SMILES is read from it.

For `CC(C)C[C@@H]1NC(=O)[C@H](CCCN)NC(=O)[C@H](C(C)C)NC(=O)[C@@H]2CCCN2C(=O)[C@@H](Cc2ccccc2)NC(=O)[C@H](CC(C)C)NC(=O)[C@H](CCCN)NC(=O)[C@H](C(C)C)NC(=O)[C@@H]2CCCN2C(=O)NC(=O)[C@H](Cc2ccccc2)NC(=O)[C@H](CCCCN)NC1=O`, the MIC was 100 µg/mL (≈ 76.2 µM) in the series on Pseudomonas aeruginosa [1]; 3.13 µg/mL (≈ 2.38 µM) against Bacillus subtilis; 25 µg/mL (≈ 19 µM) with Escherichia coli [3]; 3.13 µg/mL (≈ 2.38 µM) against Priestia megaterium; 3.13 µg/mL (≈ 2.38 µM) in the series with Staphylococcus aureus [4]. Further, in series [2], the HC50 at 0.5 h was above 100 µg/mL.
With `CC(C)C[C@@H]1NC(=O)[C@H](CCCN)NC(=O)[C@H](C(C)C)NC(=O)[C@@H]2C[C@@H](N[C@@H](CCCCN)C(=O)O)CN2C(=O)[C@@H](Cc2ccccc2)NC(=O)[C@H](CC(C)C)NC(=O)[C@H](CCCN)NC(=O)[C@H](C(C)C)NC(=O)[C@@H]2C[C@@H](N[C@@H](CCCCN)C(=O)O)CN2C(=O)[C@@H](Cc2ccccc2)NC1=O` [listing 1 of 2 here], in [5], the concentration for 50% haemolysis (HC50) at 0.5 h is above 100 µg/mL.
As for `CC(C)C[C@@H]1NC(=O)[C@H](CCCN)NC(=O)[C@H](C(C)C)NC(=O)[C@@H]2C[C@@H](N[C@@H](CCCCN)C(=O)O)CN2C(=O)[C@@H](Cc2ccccc2)NC(=O)[C@H](CC(C)C)NC(=O)[C@H](CCCN)NC(=O)[C@H](C(C)C)NC(=O)[C@@H]2C[C@@H](N[C@@H](CCCCN)C(=O)O)CN2C(=O)[C@@H](Cc2ccccc2)NC1=O` [listing 2 of 2 here], the MIC in the series with Staphylococcus aureus [6] is 8 µg/mL (≈ 5.6 µM); in the series with Escherichia coli [7], 16 µg/mL (≈ 11.2 µM).
Regarding `CC(C)C[C@@H]1NC(=O)[C@H](CCCN)NC(=O)[C@H](C(C)C)NC(=O)[C@@H]2CCCN2C(=O)[C@@H](Cc2ccc(OCc3ccccc3)cc2)NC(=O)[C@H](CC(C)C)NC(=O)[C@@H](CCCN)NC(=O)[C@H](C(C)C)NC(=O)[C@@H]2CCCN2C(=O)[C@@H](Cc2ccc(OCc3ccccc3)cc2)NC1=O`, the MIC against Staphylococcus aureus [8] was found to be 8 µg/mL (≈ 5.91 µM); in the series on Enterococcus faecalis [9], 8 µg/mL (≈ 5.91 µM); with Escherichia coli [10], 64 µg/mL (≈ 47.3 µM).
Regarding `NCCC[C@@H]1NC(=O)[C@H](C23CC4CC(CC(C4)C2)C3)NC(=O)[C@@H]2CCCN2C(=O)[C@@H](Cc2ccccc2)NC(=O)[C@H](C23CC4CC(CC(C4)C2)C3)NC(=O)[C@H](CCCN)NC(=O)[C@H](C23CC4CC(CC(C4)C2)C3)NC(=O)[C@@H]2CCCN2C(=O)[C@@H](Cc2ccccc2)NC(=O)[C@H](C23CC4CC(CC(C4)C2)C3)NC1=O`, the MIC with Staphylococcus aureus [11], against Escherichia coli [12], in the series with Pseudomonas aeruginosa [13] and against Enterococcus faecalis [14] was above 64 µg/mL throughout.
For `CC(C)C[C@@H]1NC(=O)[C@H](CCCN)NC(=O)[C@H](C(C)C)NC(=O)[C@H](CCCCN)NC(=O)[C@@H](Cc2ccccc2)NC(=O)[C@H](CC(C)C)NC(=O)[C@@H](CCCN)NC(=O)[C@H](C(C)C)NC(=O)[C@H](CCCCN)NC(=O)[C@@H](Cc2ccccc2)NC1=O`, the MIC with Pseudomonas aeruginosa [1] is 50 µg/mL (≈ 41.5 µM); against Bacillus subtilis, 6.25 µg/mL (≈ 5.19 µM); against Escherichia coli [3], 25 µg/mL (≈ 20.8 µM); in the series on Priestia megaterium, 3.13 µg/mL (≈ 2.6 µM); with Staphylococcus aureus [4], 3.13 µg/mL (≈ 2.6 µM). For the same compound, the HC50 at 0.5 h in series [2] was above 200 µg/mL.
With `CC(C)C[C@@H]1NC(=O)[C@H](CCCN)NC(=O)[C@H](C(C)C)NC(=O)[C@@H]2CCCN2C(=O)[C@@H](CCCCN)NC(=O)[C@H](CC(C)C)NC(=O)[C@@H](CCCN)NC(=O)[C@H](C(C)C)NC(=O)[C@@H]2CCCN2C(=O)[C@@H](CCCCN)NC1=O`, the MIC against Pseudomonas aeruginosa [1] amounted to 12.5 µg/mL (≈ 11.3 µM); against Bacillus subtilis, 6.25 µg/mL (≈ 5.66 µM); in the series on Escherichia coli [3], 12.5 µg/mL (≈ 11.3 µM); against Priestia megaterium, 3.13 µg/mL (≈ 2.84 µM); in the series with Staphylococcus aureus [4], 3.13 µg/mL (≈ 2.84 µM). The 50% haemolytic concentration (HC50) at 0.5 h in series [2] lay within 150 to 200 µg/mL.
Regarding `CC(C)C[C@@H]1NC(=O)[C@H](CCCN)NC(=O)[C@H](C(C)C)NC(=O)[C@@H]2CCCN2C(=O)[C@@H](Cc2c[nH]cn2)NC(=O)[C@H](CC(C)C)NC(=O)[C@@H](CCCN)NC(=O)[C@H](C(C)C)NC(=O)[C@@H]2CCCN2C(=O)[C@@H](Cc2ccccc2)NC1=O`, the MIC against Pseudomonas aeruginosa [15] turned out to be 16 µg/mL (≈ 14.1 µM); against Staphylococcus aureus [17] it was 4 µg/mL (≈ 3.54 µM); in the series on Escherichia coli [18] it was 8 µg/mL (≈ 7.07 µM); against Enterococcus faecalis [19], 16 µg/mL (≈ 14.1 µM). The compound also gave an HC50 at 4 h in series [16] of 90 to 110 µg/mL.
As to `CC(C)C[C@@H]1NC(=O)[C@H](CCCCN)NC(=O)[C@H](C(C)C)NC(=O)[C@@H]2CCCN2C(=O)[C@@H](Cc2ccc(O)cc2)NC(=O)[C@H](CC(C)C)NC(=O)[C@H](CCCCN)NC(=O)[C@H](C(C)C)NC(=O)[C@H](CCCCN)NC(=O)[C@H](CC(C)C)NC(=O)[C@@H]2CCCN2C(=O)[C@@H](Cc2ccc(O)cc2)NC(=O)[C@H](C(C)C)NC(=O)[C@H](CCCCN)NC1=O` (cyclo(KLKV[dY]PLKVKL[dY]PV)), the HD100 with Erythrocyte was 1.5 µg/mL. The MIC in the series with Pseudomonas aeruginosa [20] was above 200 µg/mL; with Candida albicans, 175 µg/mL (≈ 105 µM); against Staphylococcus aureus [21] it was above 200 µg/mL; with Escherichia coli [24], above 200 µg/mL; in the series on Enterococcus faecalis [26] it was 2.3 µg/mL (≈ 1.38 µM). Also, the IC50 at Lipopolysaccharide (LPS) was 3000 nM. Further, the selectivity ratio in [22] is below 0.01; in [23], below 0.01; in [25], 0.7; in series [27], below 0.01.
